Results as given in US8618152B2, “Inhibitors of serine proteases, particularly HCV NS3-NS4A proteases” (Vertex Pharmaceuticals Incorporated, priority 2003, dated 2013).
Like-named read-outs stand apart in the source and are kept apart here.

How the values were obtained:
[1] = tested on: Cells containing hepatitis C virus (HCV) replicon; assay: HCV replicon cell assay; type: cell-based
Method: HCV Replicon Cell Assay Protocol
Cells containing hepatitis C virus (HCV) replicon were maintained in DMEM containing 10% fetal bovine serum (FBS), 0.25 mg per ml of G418, with appropriate supplements (media A).
On day 1, replicon cell monolayer was treated with a trypsin:EDTA mixture, removed, and then media A was diluted into a final concentration of 100,000 cells per ml with. 10,000 cells in 100 ul were plated into each well of a 96-well tissue culture plate, and cultured overnight in a tissue culture incubator at 37° C.
On day 2, compounds (in 100% DMSO) were serially diluted into DMEM containing 2% FBS, 0.5% DMSO, with appropriate supplements (media B). The final concentration of DMSO was maintained at 0.5% throughout the dilution series.
Media on the replicon cell monolayer was removed, and then media B containing various concentrations of compounds was added. Media B without any compound was added to other wells as no compound controls.
Cells were incubated with compound or 0.5% DMSO in media B for 48 hours in a tissue culture incubator at 37° C. At the end of the 48-hour incubation, the media was removed, and the replicon cell monolayer was washed once with PBS and stored at −80° C. prior to RNA extraction.
Culture plates with treated replicon cell monolayers were thawed, and a fixed amount of another RNA virus, such as Bovine Viral Diarrhea Virus (BVDV) was added to cells in each well. RNA extraction reagents (such as reagents from RNeasy kits) were added to the cells immediately to avoid degradation of RNA. Total RNA was extracted according the instruction of manufacturer with modification to improve extraction efficiency and consistency. Finally, total cellular RNA, including HCV replicon RNA, was eluted and stored at −80° C. until further processing.
A Taqman real-time RT-PCR quantification assay was set up with two sets of specific primers and probe. One was for HCV and the other was for BVDV. Total RNA extractants from treated HCV replicon cells was added to the PCR reactions for quantification of both HCV and BVDV RNA in the same PCR well. Experimental failure was flagged and rejected based on the level of BVDV RNA in each well. The level of HCV RNA in each well was calculated according to a standard curve run in the same PCR plate. The percentage of inhibition or decrease of HCV RNA level due to compound treatment was calculated using the DMSO or no compound control as 0% of inhibition. The IC50 (concentration at which 50% inhibition of HCV RNA level is observed) was calculated from the titration curve of any given compound.

[2] = molecular target: HCV NS3-NS4A protease (tNS3 with KK4A) (Hepatitis C virus genotype 1a, UniProt P27958); assay: HCV Ki assay (HPLC microbore separation of 5AB substrate and products); type: biochemical
HCV NS3-NS4A protease (tNS3 with KK4A), sequence (P27958 1027-1208): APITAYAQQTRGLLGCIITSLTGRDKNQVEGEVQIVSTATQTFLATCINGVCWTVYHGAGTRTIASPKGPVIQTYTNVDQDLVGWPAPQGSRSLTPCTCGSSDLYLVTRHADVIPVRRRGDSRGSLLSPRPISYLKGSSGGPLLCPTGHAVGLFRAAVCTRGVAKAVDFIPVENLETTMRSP
Method: HPLC Microbore Method for Separation of 5AB Substrate and Products
Substrate: NH2-Glu-Asp-Val-Val-(alpha)Abu-Cys-Ser-Met-Ser-Tyr-COOH
A stock solution of 20 mM 5AB (or concentration of your choice) was made in DMSO w/0.2M DTT. This was stored in aliquots at −20 C.
Buffer: 50 mM HEPES, pH 7.8; 20% glycerol; 100 mM NaCl
Total assay volume was 100 μL
The buffer, KK4A, DTT, and tNS3 were combined; distributed 78 μL each into wells of 96 well plate. This was incubated at 30 C for ˜5-10 min.
2.5 μL of appropriate concentration of test compound was dissolved in DMSO (DMSO only for control) and added to each well. This was incubated at room temperature for 15 min.
Initiated reaction by addition of 20 μL of 250 μM 5AB substrate (25 μM concentration is equivalent or slightly lower than the Km for 5AB).
Incubated for 20 min at 30 C.
Terminated reaction by addition of 25 μL of 10% TFA
Transferred 120 μL aliquots to HPLC vials
Separated SMSY product from substrate and KK4A by the following method:
Microbore Separation Method:
Instrumentation: Agilent 1100
Column thermostated chamber G1316A
Diode array detector G1315A
Solvent A=HPLC grade water+0.1% TFA
Solvent B=HPLC grade acetonitrile+0.1% TFA
Stop time: 17 min Post-run time: 10 min.

[3] = 50% inhibition of HCV RNA level, 48-hour incubation, Taqman real-time RT-PCR, read-out: IC50
[4] = 25 nM tNS3, 25 μM KK4A, 25 μM 5AB substrate, 20 min at 30 C, read-out: Ki

SMILES | IC50 [1, 3] | Ki [2] | Ki [2, 4] | IC50 ([1]; 48 h)
CCCC(NC(=O)[C@@H]1[C@@H](C2CCCCC2)CCN1C(=O)[C@@H](NC(=O)[C@@H](NC(=O)C1CSC(=O)N1)C1CCCCC1)C(C)(C)C)C(=O)C(=O)N[C@@H](C)c1ccccc1 (stereo partly drawn) [Compound 63] | 500 to 1000 nM | < 100 nM |  | 
CCCC(NC(=O)[C@@H]1[C@@H](C2CCCCC2)CCN1C(=O)[C@@H](NC(=O)[C@@H](NC(=O)c1cnccn1)C1CCCCC1)C(C)(C)C)C(=O)C(=O)NC1CC1 (stereo partly drawn) [Compound 55] | 500 to 1000 nM |  | < 100 nM | 
CCC[C@H](NC(=O)[C@@H]1[C@@H](CC)[C@@H](C)CN1C(=O)[C@@H](NC(=O)[C@@H](NC(=O)c1cnccn1)C1CCCCC1)C(C)(C)C)C(=O)C(=O)NC1CC1 [Compound 76] | > 1000 nM |  | 100 to 500 nM | 
CCC[C@H](NC(=O)[C@@H]1[C@@H](C2CCCCC2)CCN1C(=O)[C@@H](NC(=O)[C@@H](NC(=O)c1cc([N+](=O)[O-])c[nH]1)C1CCCCC1)C(C)(C)C)C(=O)C(=O)NC1CC1 [Compound 71] | > 1000 nM |  | < 100 nM | 
CCC[C@H](NC(=O)[C@@H]1[C@@H](C(C)C)CCN1C(=O)[C@@H](NC(=O)[C@@H](NC(=O)c1ncc[nH]1)C1CCCCC1)C(C)(C)C)C(=O)C(=O)NC1CC1 [Compound 69] | < 500 nM |  | < 100 nM | 
CCC[C@H](NC(=O)[C@@H]1[C@@H](C2CCCCC2)CCN1C(=O)[C@@H](NC(=O)[C@@H](NC(=O)c1ccc[nH]1)C1CCCCC1)C(C)(C)C)C(=O)C(=O)NC1CC1 [Compound 72] | 500 to 1000 nM |  | < 100 nM | 
CC[C@H]1CCN(C(=O)[C@@H](NC(=O)[C@@H](NC(=O)c2cnccn2)C2CCCCC2)C(C)(C)C)[C@@H]1C(=O)NC(CC(F)F)C(=O)C(=O)NC1CC1 (stereo partly drawn) [Compound 52] | < 500 nM |  | < 100 nM | 
CCC[C@H](NC(=O)[C@@H]1[C@@H](C2CCCCC2)CCN1C(=O)[C@@H](NC(=O)[C@@H](NC(=O)c1ncc[nH]1)C1CCCCC1)C(C)(C)C)C(=O)C(=O)NC1CC1 [Compound 68] | < 500 nM |  | < 100 nM | 
CCCC(NC(=O)[C@@H]1[C@@H](CC)CCN1C(=O)[C@@H](NC(=O)[C@@H](NC(=O)c1cnccn1)C1CCCCC1)C(C)(C)C)C(=O)C(=O)N[C@@H](C)c1ccccc1 (stereo partly drawn) [Compound 44] | 500 to 1000 nM |  | 100 to 500 nM | 
CCC[C@H](NC(=O)[C@@H]1[C@@H](C(C)C)CCN1C(=O)[C@@H](NC(=O)[C@@H](NC(=O)c1cnccn1)C1CCCCC1)C(C)C)C(=O)C(=O)NC1CC1 [Compound 64] |  |  | 100 to 500 nM | > 1000 nM
CCCC(NC(=O)[C@@H]1[C@@H](C2CCCCC2)CCN1C(=O)[C@@H](NC(=O)[C@@H](NC(=O)c1cnccn1)C1CCCCC1)C(C)(C)C)C(=O)C(=O)N[C@@H](C)c1ccccc1 (stereo partly drawn) [Compound 62] | 500 to 1000 nM |  | < 100 nM | 
CCCC(NC(=O)[C@@H]1[C@@H](CC)CCN1C(=O)[C@@H](NC(=O)[C@@H](NC(=O)c1cnccn1)C1CCCCC1)C(C)(C)C)C(=O)C(=O)NC1CC1 (stereo partly drawn) [Compound 39] | 500 to 1000 nM |  | < 100 nM | 
CCCC(NC(=O)[C@@H]1[C@@H](C2CCCCC2)CCN1C(=O)[C@@H](NC(=O)[C@@H](NC(=O)c1cnccn1)C1CCCCC1)C(C)C)C(=O)C(=O)NC1CC1 (stereo partly drawn) [Compound 54] |  |  | 100 to 500 nM | > 1000 nM
CCC[C@H](NC(=O)[C@@H]1[C@@H](C2CCCC2)CCN1C(=O)[C@@H](NC(=O)[C@@H](NC(=O)c1cnccn1)C1CCCCC1)C(C)(C)C)C(=O)C(=O)NC1CC1 [Compound 75] | > 1000 nM |  | 100 to 500 nM | 
CCC[C@H](NC(=O)[C@@H]1[C@@H](C2CCCCC2)CCN1C(=O)[C@@H](NC(=O)[C@@H](NC(=O)c1cnccn1)C1CCCCC1)C(C)(C)C)C(=O)C(=O)N[C@@H](C)C1CCCCC1 [Compound 67] | > 1000 nM |  | > 500 nM | 
CCC[C@H](NC(=O)[C@@H]1[C@@H](Cc2ccccc2)CCN1C(=O)[C@@H](NC(=O)[C@@H](NC(=O)c1cnccn1)C1CCCCC1)C(C)(C)C)C(=O)C(=O)NC1CC1 [Compound 77] | > 1000 nM |  | 100 to 500 nM | 
CCC[C@H](NC(=O)[C@@H]1[C@@H](C2CCCCC2)CCN1C(=O)[C@@H](NC(=O)[C@@H](NC(=O)c1cnccn1)C1CCCCC1)C(C)(C)C)C(=O)C(=O)NC1CC1 [Compound 66] | 500 to 1000 nM |  | 100 to 500 nM | 
CCC[C@H](NC(=O)[C@@H]1[C@@H](C(CC)CC)CCN1C(=O)[C@@H](NC(=O)[C@@H](NC(=O)c1cnccn1)C1CCCCC1)C(C)(C)C)C(=O)C(=O)NC1CC1 [Compound 74] | > 1000 nM |  | 100 to 500 nM | 
